Laboratory results reported in paper PMC10457740, “Design, Synthesis and Biological Evaluation of Novel PEG-Rakicidin B1 Hybrid as Clostridium difficile (CD) Targeted Anti-Bacterial Agent” (Molecules, 2023).
Structures can show the parent of a compound that is named as a salt. Where two headings read alike, the source gives them in different places.

How the values were obtained:
HCT-8 cells = assay: In vitro cytotoxicity, CCK-8 assay, HCT-8; type: cell-based; conditions: Homo sapiens, HCT-8, 48 h
Caco-2 = assay: In vitro cytotoxicity, CCK-8 assay, Caco-2; type: cell-based; conditions: Homo sapiens, Caco-2, 48 h
[1] = system: PANC-1 cells (zebrafish pancreatic cancer transplant model); assay: In vivo cytotoxicity, zebrafish pancreatic cancer transplant model; conditions: 48 h, n = 10
PANC-1 = assay: In vitro cytotoxicity, CCK-8 assay, PANC-1; type: cell-based; conditions: Homo sapiens, PANC-1, 48 h
[2] = system: C. difficile infection (CDI); conditions: cited from earlier work; for recurrence of CDI: patients, after treatment; for response in patients: treatment of mild to moderate episodes of CDI
CD strain ATCC 43255 = assay: CDI mouse model (survival, recurrence, weight, clinical scores)

In the case of `C=C1/C=C/C(=O)N(C)CC(=O)N[C@@H]([C@H](O)C(N)=O)C(=O)O[C@@H]([C@H](C)CCCCCCCCCCCC(C)CC)[C@H](C)C(=O)N1` (stereo partly shown) [Rakicidin B1], the IC50 (HCT-8 cells; read-out: IC50 HCT-8, hypoxia (5% CO2, 95% N2), 48 h, CCK-8) is reported as 430 nM, the IC50 (HCT-8 cells; read-out: IC50 HCT-8, normoxia, 48 h drug exposure, CCK-8) is reported as 519 nM and the IC50 (Caco-2; read-out: IC50 Caco-2, hypoxia (5% CO2, 95% N2), 48 h, CCK-8) is reported as 457 nM. For the same molecule, the IC50 (Caco-2; read-out: IC50 Caco-2, normoxia, 48 h drug exposure, CCK-8) was 586 nM, the “Fluorescence Intensity (S, Mean ± SE)” value ([1]; 22.4 nM in water) was 773,141 ± 49,850 and the “Fluorescence Intensity (S, Mean ± SE)” value ([1]; 67.2 nM in water) was 662,225 ± 41,743. For the same molecule, the “Fluorescence Intensity (S, Mean ± SE)” value ([1]; 201.5 nM in water) was 527,824 ± 34,172, the inhibition at 0.0224 µM ([1]; Danio rerio, PANC-1, 22.4 nM in water, read-out: Inhibition Rate (%)) was 17% and the inhibition at 0.0672 µM ([1]; Danio rerio, PANC-1, 67.2 nM in water, read-out: Inhibition Rate (%)) was 29%. For the same molecule, the inhibition at 0.2015 µM ([1]; Danio rerio, PANC-1, 201.5 nM in water, read-out: Inhibition Rate (%)) was 43%, the IC50 (PANC-1; read-out: IC50 PANC-1, hypoxia (5% CO2, 95% N2), 48 h, CCK-8) was 486 nM and the IC50 (PANC-1; read-out: IC50 PANC-1, normoxia, 48 h drug exposure, CCK-8) was 815 nM.

In the case of `Nc1ccn([C@@H]2O[C@H](CO)[C@@H](O)C2(F)F)c(=O)n1` [gemcitabine hydrochloride], the “Fluorescence Intensity (S, Mean ± SE)” value ([1]; 66.7 µM in water) is reported as 540,311 ± 59,245 ^1 and the inhibition at 66.7 µM ([1]; Danio rerio, PANC-1, 66.7 µM in water, read-out: Inhibition Rate (%)) is reported as 42%.

In the case of `Cc1ncc([N+](=O)[O-])n1CCO` [metronidazole], the “recurrence of CDI” value [2] is listed as 25–30% and the response in patients [2] is listed as “approximately 90%”.

With `CN[C@H](CC(C)C)C(=O)N[C@H]1C(=O)N[C@@H](CC(N)=O)C(=O)N[C@H]2C(=O)N[C@H]3C(=O)N[C@H](C(=O)N[C@H](C(=O)O)c4cc(O)cc(O)c4-c4cc3ccc4O)[C@H](O)c3ccc(c(Cl)c3)Oc3cc2cc(c3O[C@@H]2O[C@H](CO)[C@@H](O)[C@H](O)[C@H]2O[C@H]2C[C@](C)(N)[C@H](O)[C@H](C)O2)Oc2ccc(cc2Cl)[C@H]1O` [vancomycin] the “mortality rate after stopping treatment (recurrence of infection)” value (CD strain ATCC 43255; C57BL/6 mice, vancomycin 20 mg/kg once a day for seven days, monitored until day 21) was 40%, the “body weight changes and clinical scores after stopping treatment” value (CD strain ATCC 43255; infected C57BL/6 mice, after seven-day treatment, until day 21) was “significant weight loss and a sharp increase in clinical scores” and the “body weight changes and clinical scores while receiving treatment” value (CD strain ATCC 43255; infected C57BL/6 mice, during seven-day treatment) was “did not experience weight loss or an increase in clinical scores”. For the same molecule, the “recurrence of infection after treatment ended” value (CD strain ATCC 43255; infected C57BL/6 mice, monitored until day 21) was “recurrence of infection is observed”, the “recurrence of CDI” value [2] was 25–30% and the response in patients [2] was “approximately 90%”.
